Non-standard residues stand in square brackets, D forms with d. Residues, ends and D or L forms follow the SMILES beside them. *: point of attachment. Dolaproine = CO[C@@H]([C@@H]1CCCN1)[C@@H](C)C(=O)O; Dil = CC[C@H](C)[C@H](NC)[C@@H](CC(=O)O)OC; X1 = C[C@@H](N*)[C@@H](O)c1ccccc1; NMeV = CN[C@H](C(=O)O)C(C)C
Legend:
[1] = system: MMTV-HER2 transgenic mammary tumors (Fo5); details: established MMTV-HER2 transgenic mammary tumors (Fo5)
Procedure: Log Cell Kill analyses based on tumor doubling times were conducted. The Log Cell Kill analysis uses a mathematical computation of tumor growth delay based on the time it takes for tumors to double in size after treatment begins compared to controls.

[2] = Toxicity of IgG-MMAE, F(ab')2-MMAE conjugates and free MMAE in rats (Example 3); assay type: in vivo, Female Spraque-Dawley (SD) rats
Procedure: Female Spraque-Dawley (SD) rats weighing between 75-80 grams (Charles River Laboratories, Hollister, Calif.) were used in the following studies to compare the toxicity of free MMAE, Fab-MMAE and F(ab′)2-MMAE conjugates.
The body surface area was calculated as follows: [{(body weight in grams to 0.667 power)×11.8}/10000]. (Guidance for Industry and Reviewers. Estimating the Safety Starting Dose in Clinical Trials for Therapeutics in Adult Healthy Volunteers. U.S. Department of Health and Human Services Food and Drug Administration, Center for Drug Evaluation and Research (CDER), Center for Biologics Evaluation and research (CBER), December 2002).
General clinical observations were performed daily. Morbidity and mortality checks were performed twice daily (AM and PM). The body weights of the animals were measured pre-dose on Study Day 1 and daily thereafter. Whole blood was collected into EDTA containing tubes for hematology parameters (e.g., mean serum AST levels, ALT levels, GGT levels and billirubin levels) and differential cell counts (e.g., mean white blood cell counts and platelet counts). Whole blood was collected into serum separator tubes for clinical chemistry parameters. Blood samples were collected pre-dose on Study Day-4, on Study Day 3 and on Day 5 at necropsy. Whole blood was also collected into lithium heparin containing tubes at necropsy and the plasma was frozen at −70° C. for later analysis. The following tissues were collected at necropsy: liver, kidneys, heart, thymus, spleen, brain, sternum and sections of the GI tract, including stomach, large and small intestine. At necropsy, only spleen and thymus were weighed. All statistical analyses were done on Day 5 body weights using a One Way ANOVA, Tukey's test, (SigmaStat 2.03 Software).

[3] = 2105 μg MMAE/m2, day 3 (Herceptin-vc-MMAE days 3 and 5)
[4] = 2105 μg MMAE/m2 single iv bolus

Molecule: Herceptin®
- response of the Fo5 tumor line [1]: non-responsive

Molecule: CC[C@H](C)[C@@H]([C@@H](CC(=O)N1CCC[C@H]1[C@H](OC)[C@@H](C)C(=O)N[C@H](C)[C@@H](O)c1ccccc1)OC)N(C)C(=O)[C@@H](NC(=O)[C@@H](NC)C(C)C)C(C)C [free MMAE, monomethylauristatin] (H-[NMeV]V[Dil][Dolaproine]-X1)
- morphologic changes (histology) ([2]; 2105 μg MMAE/m2): most severe
- liver associated serum enzymes / liver function tests [2, 3]: highest elevations in liver associated serum enzymes ALT, AST and GGT
- platelet and white blood cell counts [2, 3]: lowest platelet and white blood cell counts
- body weight lost by Day 3 compared with Day 1 weights [2, 4]: 12 grams
- weight loss, comparison between groups [2, 4]: comparable weight loss
- clinical observations ([2]; 2105 μg MMAE/m2 single iv bolus, Study Day 3): moribund
